Patent US4395402A, “Analgesic agent” (Zaidan Hojin Biseibutsu Kagaku Kankyu Kai, priority 1980, dated 1983)

How the values were obtained:
Wistar rats = test: Enhancement of morphine analgesia, tail-flick latency (Test 2); type: in vivo, rat
Protocol: To Wistar rats (10 week aged, male, body weight 250-300 g) was given intraperitoneally morphine at a dose of 0.5 mg/kg, and these rats receiving the morphine were classified into the group of morphine analgesia-effective rats and the group of morphine analgesia-non-effectiverats according to the classification method described in the "Showa Igakukai Zasshi" Vol. 39, No. 5, pages 537-542 (1979). […] The effect of analgesia was evaluated according to the method of tail-flick latency of rats described in the "Showa Igakukai Zasshi" Vol. 39, No. 5, pages 537-542 (1979). The evaluation of pain threshold of rats according to the tail-flick latency method was made as follows: Radiant heat stimulus was applied to the region of the rat tail which positioned 1 cm away from the tail tip and which had been colored black with a black-dye, and the time of latency involved in the tail flick, namely the period of time lapsing between the time of application of the heat stimulus and the time of the reflective flick response of the tail was measured. The quantity of the heat applied was so controlled that the average time of latency of the tail-flick response appearing in the control group of rats (receiving not the test compound but the morphine) was about 2.0 seconds. The tests were accomplished as long as the maximum value for the tail-flick latency was 7.0 seconds or less, as otherwise the skin of the rat tail could be damaged by the application of heat. In other words, if the time for the tail-flick latency was longer than 7.0 seconds, the tests were stopped to prevent the damage of the rat tail. The radiant heat stimulus was repeated 5 times for each test rat at an interval of 15 minutes and the times of latency in the flick response of the tail measured in each test were averaged. In each test, 5 rats were used.
The difference in the time of the tail-flick latency between the test rats (receiving 250 mg/kg of the test compound plus 0.5 mg/kg of morphine) and the control rats (receiving 0.5 mg/kg of morphine alone) was calculated, and the effect for enhancement of morphine analgesia was estimated in term of the value of percentages which were calculated by the following equation: [formula]

enkephalinase = target: T1, enkephalinase (Rattus norvegicus, UniProt P07861); test: Inhibitory activity against enkephalinase (Test 1); type: biochemical; settings: for Inhibitory activity to enkephalinase ID50: partially purified enkephalinase from rat brain corpus striatum, substrate methionine-enkephaline, 37° C., 1 hour, HPLC of Tyr-Gly-Gly
T1 construct: homogenizing corpus striatum of rat brain and by partial purification of the brain homogenate; from tissue; host or cells: corpus striatum of rat brain
T1 sequence (P07861 2-750 limits assumed): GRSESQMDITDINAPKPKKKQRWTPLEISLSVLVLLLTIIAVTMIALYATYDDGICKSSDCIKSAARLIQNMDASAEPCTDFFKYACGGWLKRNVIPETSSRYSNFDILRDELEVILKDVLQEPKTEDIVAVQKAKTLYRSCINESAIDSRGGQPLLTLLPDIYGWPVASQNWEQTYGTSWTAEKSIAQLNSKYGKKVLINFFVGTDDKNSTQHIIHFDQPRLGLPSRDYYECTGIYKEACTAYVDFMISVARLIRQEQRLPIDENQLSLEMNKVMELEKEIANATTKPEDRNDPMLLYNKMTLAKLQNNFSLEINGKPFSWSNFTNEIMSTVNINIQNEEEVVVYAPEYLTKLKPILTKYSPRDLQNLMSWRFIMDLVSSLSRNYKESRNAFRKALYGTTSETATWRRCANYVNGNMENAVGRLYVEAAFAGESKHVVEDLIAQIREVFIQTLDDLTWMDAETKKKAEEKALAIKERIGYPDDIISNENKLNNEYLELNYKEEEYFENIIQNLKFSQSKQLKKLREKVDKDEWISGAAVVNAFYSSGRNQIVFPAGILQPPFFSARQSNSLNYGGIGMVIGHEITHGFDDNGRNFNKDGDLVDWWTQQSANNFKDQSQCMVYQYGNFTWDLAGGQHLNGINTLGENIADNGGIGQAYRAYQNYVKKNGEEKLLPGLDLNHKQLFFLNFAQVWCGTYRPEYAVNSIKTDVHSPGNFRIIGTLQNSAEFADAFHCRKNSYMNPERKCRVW
Protocol: To the solution of the test compound so prepared was added the enkephalinase, followed by incubation for five minutes at ambient temperature and further by addition of methionine-enkephaline as the substrate. The admixture so obtained was incubated at 37° C. for 1 hour and then subjected to a high-performance liquid chromatography in such a manner that the Tyr-Gly-GLy (a fragment of the methionine-enkephaline) formed by the enzymatic degradation of methionine-enkephaline was isolated in some fractions of the eluate and the quantity of Tyr-Gly-GLy was determined by an electro-chemically analysing detector.

ICR-strain mice = settings: 2 g/kg intraperitoneally, 6 mice per group
rats = test: Analgesic activity of test compound administered alone intracisternally, tail-flick latency (Test 3); type: in vivo, rat; settings: for Analgesic activity (%) (increase in tail-flick latency): no morphine
Protocol: Analgesic activity was evaluated in term of the value of percentages of increase in the tail-flick latency of the test rats receiving the test compound, as compared to the control rats receiving no test compound.
The test as above was repeated with 2 mcg/kg of naloxone (a specific antogonizer to morphine) being intraperitoneally given into the test rats simultaneously to the intracisternal administration of the bestatin-related compound under test.

[1] = 250 mg/kg test compound i.p. + 0.5 mg/kg morphine i.p., morphine analgesia-non-effective rats, versus 0.5 mg/kg morphine alone

CC(C)C[C@H](NC(=O)[C@@H](O)[C@H](N)Cc1ccccc1)C(=O)O [Compound 1, (2S,3R)-3-amino-2-hydroxy-4-phenylbutanoyl-(S)-leucine]
Analgesia enhancement (%) (Wistar rats; [1]): 19.5% | Inhibitory activity to enkephalinase ID50 (enkephalinase): 0.62 milimol

CC(C)C[C@H](NC(=O)[C@H](O)[C@H](N)Cc1ccccc1)C(=O)O [Compound 2, (2S,3R)-3-amino-2-hydroxy-4-phenylbutanoyl-(R)-leucine]
Analgesia enhancement (%) (Wistar rats; [1]): 24.9% | Inhibitory activity to enkephalinase ID50 (enkephalinase): 2.40 milimol

N[C@H](Cc1ccccc1)[C@H](O)C(=O)N[C@H](CCC(=O)O)C(=O)O [Compound 3, (2S,3R)-3-amino-2-hydroxy-4-phenylbutanoyl-(R)-glutamic]
Inhibitory activity to enkephalinase ID50 (enkephalinase): 30.86 milimol

C[C@H](NC(=O)[C@H](O)[C@H](N)Cc1ccccc1)C(=O)O [Compound 4, (2S,3R)-3-amino-2-hydroxy-4-phenylbutanoyl-(R)-alanine]
Inhibitory activity to enkephalinase ID50 (enkephalinase): 5.98 milimol | Acute toxicity (survival) (ICR-strain mice): all the mice receiving 2 g/kg of AHPA-D-Ala survived

N=C(N)NCCC[C@H](NC(=O)[C@H](O)[C@H](N)Cc1ccccc1)C(=O)O [Compound 5, (2S,3R)-3-amino-2-hydroxy-4-phenylbutanoyl-(R)-arginine]
Analgesia enhancement (%) (Wistar rats; [1]): 13.6% | Enhancement of the analgesic activity of morphine (in words) (Wistar rats; summary statement): not significantly effective | Inhibitory activity to enkephalinase ID50 (enkephalinase): 0.063 milimol | Activity to inhibit enkephalinase in vitro (in words) (enkephalinase; summary statement): high activity to inhibit enkephalinase | Analgesic activity (%) (increase in tail-flick latency) (rats; dose 60 mcg intracisternally): 134.0% | Analgesic activity when administered intracisternally in the brain (in words) (rats; summary statement): high analgesic activity

CSCC[C@H](NC(=O)[C@H](O)[C@H](N)Cc1ccccc1)C(=O)O [Compound 6, (2S,3R)-3-amino-2-hydroxy-4-phenylbutanoyl-(R)-methionine]
Analgesia enhancement (%) (Wistar rats; [1]): 14.7% | Inhibitory activity to enkephalinase ID50 (enkephalinase): 2.54 milimol

CSCC[C@H](NC(=O)[C@@H](O)[C@H](N)Cc1ccccc1)C(=O)O [Compound 7, (2S,3R)-3-amino-2-hydroxy-4-phenylbutanoyl-(S)-methionine]
Analgesia enhancement (%) (Wistar rats; [1]): 10.5% | Inhibitory activity to enkephalinase ID50 (enkephalinase): 2.78 milimol

CC(C)C[C@H](NC(=O)[C@@H](O)[C@H](N)Cc1ccc(O)cc1)C(=O)O [Compound 8, (2S,3R)-3-amino-2-hydroxy-4-p-hydroxyphenylbutanoyl-(S)-leucine]
Analgesia enhancement (%) (Wistar rats; [1]): 34.5% | Inhibitory activity to enkephalinase ID50 (enkephalinase): 0.37 milimol | Analgesic activity (%) (increase in tail-flick latency) (rats; dose 500 mcg intracisternally): 47.0%

CC(C)C[C@H](NC(=O)[C@H](O)[C@H](N)Cc1ccc(O)cc1)C(=O)O [Compound 9, (2S,3R)-3-amino-2-hydroxy-4-p-hydroxyphenylbutanoyl-(R)-leucine]
Analgesia enhancement (%) (Wistar rats; [1]): 23.1% | Inhibitory activity to enkephalinase ID50 (enkephalinase): 20.68 milimol

N[C@H](Cc1ccc(O)cc1)[C@H](O)C(=O)N[C@H](Cc1ccccc1)C(=O)O [Compound 10, (2S,3R)-3-amino-2-hydroxy-4-p-hydroxyphenylbutanoyl-(R)-phenylalanine]
Analgesia enhancement (%) (Wistar rats; [1]): 27.0%

CC(C)C[C@H](NC(=O)[C@@H](O)[C@H](N)Cc1ccccc1)C(=O)N[C@H](CC(C)C)C(=O)O [Compound 11, (2S,3R)-3-amino-2-hydroxy-4-phenylbutanoyl-(S)-leucyl-(R)-leucine]
Analgesia enhancement (%) (Wistar rats; [1]): 5.2% | Inhibitory activity to enkephalinase ID50 (enkephalinase): 0.95 milimol

N[C@H](Cc1ccccc1)[C@H](O)C(=O)NCCC(=O)O [Compound 12, (2S,3R)-3-amino-2-hydroxy-4-phenylbutanoyl-β-alanine]
Analgesia enhancement (%) (Wistar rats; [1]): 12.0%

NC(=O)C[C@H](NC(=O)[C@H](O)[C@H](N)Cc1ccccc1)C(=O)O [Compound 13, (2S,3R)-3-amino-2-hydroxy-4-phenylbutanoyl-(R)-asparagine]
Inhibitory activity to enkephalinase ID50 (enkephalinase): 3.12 milimol

N[C@H](Cc1ccccc1)[C@H](O)C(=O)NCC(=O)O [Compound 14, (2S,3R)-3-amino-2-hydroxy-4-phenylbutanoyl-glycine]
Analgesia enhancement (%) (Wistar rats; [1]): 19.1%

N[C@H](Cc1ccccc1)[C@H](O)C(=O)O [Compound 15, (2S,3R)-3-amino-2-hydroxy-4-phenylbutanoic acid]
Analgesia enhancement (%) (Wistar rats; [1]): 14.1%

CN1CC[C@]23c4c5ccc(O)c4O[C@H]2[C@@H](O)C=C[C@H]3[C@H]1C5 [Morphine, reference compound]
Analgesia enhancement (%) (Wistar rats; comparative: morphine 0.5 mg/kg alone (control reference)): 0% | Analgesia enhancement (%) (Wistar rats; comparative: morphine 2 mg/kg alone): 28.4% | Analgesia enhancement (%) (Wistar rats; comparative: morphine 3 mg/kg alone): 35.1%
